Converted amounts (≈) assume the structure as drawn.
Experiments:
[1] = Release studies of CPT microspheres in pH 7.4 PBS at 37 C, sink condition; type: physicochemical; conditions: free drug
Method: OCA was prepared from oxidized (OC, COOH content 14% w/w) by treatment with a mixture of Ac2O/HOAC/H2SO4. The preparation of OCAM was achieved from a reaction between OCA and methanol using dicyclohexylcarbodiimide and 4,4′-dimethylaminopyridine as the catalysts. OCA and OCAM microspheres containing CPT were prepared by the emulsion/solvent evaporation method using the CH2Cl2—CH3OH mixture as a solvent and polyvinyl alcohol as an emulsifier. Microspheres were characterized by IR, scanning electron and confocal microscopes, and powder X-ray diffractometry. Dissolution studies were performed in pH 7.4 phosphate buffer-saline (PBS) at 37° C.
The release studies were performed under the sink condition in pH 7.4 PBS buffer at 37.0±0.2° C. At predetermined time intervals, 5.0 ml of the release medium was withdrawn. This was immediately replaced with an equal volume of the fresh PBS solution. The removed release medium was appropriated diluted with the mobile phase and analyzed by HPLC.

[2] = Solubility of 5-fluorouracil in pH 7.4 phosphate buffer saline; type: physicochemical; conditions: aqueous buffer, pH 7.4 PBS, read-out: solubility in pH 7.4 phosphate buffer saline solution

Structure (SMILES)	time to dissolve [1]	solubility [2] [mg/mL]
CC[C@@]1(O)C(=O)OCc2c1cc1n(c2=O)Cc2cc3ccccc3nc2-1 [free CPT, camptothecin]	about 48 hours	–
O=c1[nH]cc(F)c(=O)[nH]1 [5-fluorouracil]	–	14.9 (≈ 114 mM)
